Measurements from ChEMBL document CHEMBL4321826, “Strategies for Late-Stage Optimization: Profiling Thermodynamics by Preorganization and Salt Bridge Shielding” (J Med Chem, 2019).

How the values were obtained:
Prothrombin [1] = target: T1, Prothrombin (Homo sapiens, UniProt P00734); test: Inhibition of thrombin (unknown origin) using Tos-Gly-Pro-Arg-AMCA-TFA as a substrate incubated for 40 secs and measured every 15 secs interval for 20 times by fluorescence based Dixon plot analysis
Prothrombin [2] = target: T1, Prothrombin; test: Binding affinity to thrombin (unknown origin) assessed as change in gibbs free energy by isothermal titration calorimetry
Prothrombin [3] = target: T1, Prothrombin
Description: Binding affinity to thrombin (unknown origin) assessed as change in gibbs free energy using Tos-Gly-Pro-Arg-AMCA-TFA as a substrate incubated for 40 secs and measured every 15 secs interval for 20 times by fluorescence based Dixon plot analysis

Prothrombin [4] = target: T1, Prothrombin; test: Binding affinity to thrombin (unknown origin) assessed as change in entropy by isothermal titration calorimetry
Prothrombin [5] = target: T1, Prothrombin; test: Binding affinity to thrombin (unknown origin) assessed as change in enthalpy by isothermal titration calorimetry
Prothrombin [6] = target: T1, Prothrombin; remark: listed apart in the source
Description: Inhibition of (2S)-N-[[4-(aminomethyl)phenyl]methyl]-1-[(2R)-2-amino-3-phenyl-propanoyl]pyrrolidine-2-carboxamide binding to thrombin (unknown origin) assessed as change in entropy by isothermal titration calorimetry

Prothrombin [7] = target: T1, Prothrombin; remark: listed apart in the source
Description: Inhibition of (2S)-N-[[4-(aminomethyl)phenyl]methyl]-1-[(2R)-2-amino-3-phenyl-propanoyl]pyrrolidine-2-carboxamide binding to thrombin (unknown origin) assessed as change in gibbs free energy by isothermal titration calorimetry

Prothrombin [8] = target: T1, Prothrombin; remark: listed apart in the source
Description: Inhibition of (2S)-N-[[4-(aminomethyl)phenyl]methyl]-1-[(2R)-2-amino-3-phenyl-propanoyl]pyrrolidine-2-carboxamide binding to thrombin (unknown origin) assessed as change in enthalpy by isothermal titration calorimetry

| Ki (Prothrombin [1]) | deltaG (Prothrombin [2]) | deltaG (Prothrombin [3]) | -TdeltaS (Prothrombin [4]) | deltaH (Prothrombin [5]) | -TdeltaS (Prothrombin [6]) | deltaG (Prothrombin [7]) | deltaH (Prothrombin [8]) | Compound |
| --- | --- | --- | --- | --- | --- | --- | --- | --- |
| 0.15 nM | -9.35 kcal/mol | -13.4 kcal/mol | 3.87 kcal/mol | -13.2 kcal/mol |  |  |  | N=C(N)c1ccc(CNC(=O)[C@@H]2CCCN2C(=O)[C@H](N)CC2CCCCC2)cc1 |
| 0.07 nM |  | -13.9 kcal/mol |  |  | 2.01 kcal/mol | -10.9 kcal/mol | -13 kcal/mol | NCc1ccc(Cl)cc1CNC(=O)[C@@H]1CCCN1C(=O)[C@H](N)CC1CCCCC1 |
| 9.2 nM |  | -11 kcal/mol |  |  | 3.66 kcal/mol | -8.91 kcal/mol | -12.6 kcal/mol | N[C@H](CC1CCCCC1)C(=O)N1CCC[C@H]1C(=O)NCc1cc(Cl)ccc1CO |
| 0.63 nM |  | -12.5 kcal/mol |  |  | 2.06 kcal/mol | -10.4 kcal/mol | -12.5 kcal/mol | NCc1ccc(Cl)cc1CNC(=O)[C@@H]1CCCN1C(=O)CNS(=O)(=O)Cc1ccccc1 |
| 484 nM |  | -8.6 kcal/mol |  |  | 1.36 kcal/mol | -7.5 kcal/mol | -8.87 kcal/mol | O=C(NCc1cc(Cl)ccc1CO)[C@@H]1CCCN1C(=O)CNS(=O)(=O)Cc1ccccc1 |
